# Measured values from patent US9409978B2, “Modulation of midbody derivatives” (University of Massachusetts, priority 2011, dated 2016).
# Entries after “also recorded” stand apart in the source; their conditions may differ.
# Assays:
# [1] = test system: MCF-7 cancer cells; experiment: Lysosome inhibition, MBd quantification in MCF-7 cells; format: cell-based; details: lysosomal inhibition 22 hours
# Text: (§1) Each dividing cell was considered one cell.
# [2] = test system: HeLa cells; experiment: Lysosome inhibition, MBd quantification in HeLa cells; format: cell-based; details: lysosomal inhibition 22 hours
# Text: as §1
# [3] = test system: hESCs (H1, H9); experiment: Lysosome inhibition, MBd quantification in hESCs; details: chloroquine treatment
# Text: Quantification was based on the markers that: 1) labeled both mitotic MBs and MBds (MKLP1, mgcRACGAP, or Cep55); 2) labeled MBs differently than MBds (α-tubulin or Aurora B); 3) defined cell boundaries (α-tubulin or ZO-1). Because Cep55, MKLP1, and mgcRACGAP also label centrioles and spindle midzones, cells were co-stained with centrosome antibody (e.g. 5051), and a size threshold for MB/MBds (1 μm) was introduced to exclude non-MBd structures. Structures with MB-specific or non-MB/MBd labeling were excluded from MBd counts. Cell counts: For hESCs, 5-11 colonies were imaged from triplicates in each experiment. For other cell types, random fields were imaged until n>500 cells. Each dividing cell was considered one cell.
# Cells at 70% confluency were incubated with chloroquine (200 μM/PBS; Sigma), E64d+ pepstatin A (E64d/PepA) (10 μg ml^−1/DMSO each; Sigma) (Klionsky et al., 2008, Autophagy, 4:151-175; Komatsu et al., 2007, Cell, 131:1149-63) or solvents alone (controls) for 22 hours before fixation. Lysosome inhibition was confirmed and visualized after 12-hour DQ-Red BSA (10 μg ml^−1; Invitrogen) incubation.
# [4] = test system: hRPE-1 cells; experiment: Lysosome inhibition, MBd quantification in hRPE-1 cells; format: cell-based; details: lysosomal inhibition 22 hours
# Text: as §1
structure (smiles),measurement,setting,value
CCN(CC)CCCC(C)Nc1ccnc2cc(Cl)ccc12 (stereo not shown) [chloroquine],percent of MBd+ cells (MBd levels),[1],largely unaffected; also recorded: no detectable effect
same,percent of MBds in lysosomes,[1],largely unaffected
same,percent of MBd+ cells (MBd levels),[2],modest increase; also recorded: increase the percent of MBd+ cells
same,presence of MBds in lysosomes,[2],presence of MBds in lysosomes
same,"effect of treatment on the cells (differentiation, cell death)",[3],caused differentiation and cell death
same,percent of MBds found within lysosomes,[4]; LAMP2 lysosome marker,elevated; also recorded: presence of MBds in lysosomes
same,percent of MBd+ cells (MBd levels),[4]; chloroquine 200 μM or E64d/PepA 10 μg/ml each,elevated; also recorded: increase the percent of MBd+ cells
